Measurements from patent US9266835B2, “Quinoline derivatives useful as CB-1 inverse agonists” (JANSSEN PHARMACEUTICA NV, priority 2014, dated 2016).

Assay: Chronic DIO Mouse, second study (food intake, body weight, insulin tolerance test, glucose tolerance test, plasma insulin, fed blood glucose)
Assay type: in vivo
Conditions: DIO mice
Procedure: Male 14-20-week old diet-induced obese mice were ordered from Taconic. Mice were started on a 60% fat diet (D12492, Research Diets, New Brunswick, N.J.) at 6 weeks of age. Mice were single-housed.
Test compounds were formulated in 10% PEG400 and 10% solutol. Test compounds were administered by oral gavage (5 ml kg^−1).
The test compound was formulated in 10% PEG400 and 10% solutol. DIO mice received vehicle, test compound (@ 1, 3 and 10 mg/kg) daily for 26 days. At the end of the experiment, the mice were euthanized and blood and tissues were collected.
Body weight and food weight (food intake) were monitored daily for days 1-5 and twice weekly thereafter. Fed blood glucose was measured weekly.
An insulin tolerance test (0.5 U/kg Humulin, ip) was performed on day 19 after a 4 hour food removal. Blood glucose was measured at 0, 15, 30, 60 and 120 minutes after insulin. […] Blood glucose was measured at 0, 30, 60 and 120 minutes after glucose challenge.
Blood glucose was measured from the tail vein with a Lifescan glucometer. Plasma insulin was measured with an ELISA or HTRF kit (Cisbio). Plasma parameters were measured with an Olympus clinical chemistry analyzer.
In a second study, Compound #44 was tested according to the procedure as described above, with results as listed in Tables BIO-5A through 5G, below.

## O=c1cc(NC2CCN(S(=O)(=O)C(F)(F)F)CC2)c2cc(C(c3ccc(Cl)cc3)c3ccc(Cl)cc3)ccc2[nH]1 [Compound #44, 6-(bis(4-chlorophenyl)methyl)-4-(1-(trifluoromethylsulfonyl)piperidin-4-ylamino)quinolin-2(1H)-one]
0.3 mg/kg
  Insulin Tolerance Test, Blood Glucose AUC: 20233.13 mg·min/dL
  Intraperitoneal Glucose Tolerance Test Blood Glucose AUC: 21550.00 mg·min/dL
  Plasma Insulin (Std Err): 3.89 (0.31) ng/mL
0.3 mg/kg, 0 min after glucose
  Intraperitoneal Glucose Tolerance Test Mean Blood Glucose: 155.44 mg/dL
0.3 mg/kg, 0 min after insulin
  Insulin Tolerance Test, Mean Blood Glucose: 185.00 mg/dL
0.3 mg/kg, 15 min after insulin
  Insulin Tolerance Test, Mean Blood Glucose: 172.38 mg/dL
0.3 mg/kg, 30 min after glucose
  Intraperitoneal Glucose Tolerance Test Mean Blood Glucose: 204.33 mg/dL
0.3 mg/kg, 30 min after insulin
  Insulin Tolerance Test, Mean Blood Glucose: 164.13 mg/dL
0.3 mg/kg, 60 min after glucose
  Intraperitoneal Glucose Tolerance Test Mean Blood Glucose: 187.67 mg/dL
0.3 mg/kg, 60 min after insulin
  Insulin Tolerance Test, Mean Blood Glucose: 169.38 mg/dL
0.3 mg/kg, 120 min after glucose
  Intraperitoneal Glucose Tolerance Test Mean Blood Glucose: 154.78 mg/dL
0.3 mg/kg, 120 min after insulin
  Insulin Tolerance Test, Mean Blood Glucose: 165.13 mg/dL
0.3 mg/kg, Day 0
  Fed Blood Glucose (Std Err): 165.4 (8.16) mg/dL
0.3 mg/kg, Day 1
  Mean Body Weight: 40.78 Grams
0.3 mg/kg, Day 2
  Mean Body Weight: 40.87 Grams
  Mean Daily Food Intake: 2.51 Grams
0.3 mg/kg, Day 3
  Mean Body Weight: 40.77 Grams
  Mean Daily Food Intake: 2.92 Grams
0.3 mg/kg, Day 4
  Mean Body Weight: 40.33 Grams
  Mean Daily Food Intake: 2.76 Grams
0.3 mg/kg, Day 5
  Mean Body Weight: 40.53 Grams
  Mean Daily Food Intake: 2.64 Grams
0.3 mg/kg, Day 8
  Mean Body Weight: 40.87 Grams
  Mean Daily Food Intake: 2.80 Grams
0.3 mg/kg, Day 10
  Mean Body Weight: 41.06 Grams
  Mean Daily Food Intake: 2.81 Grams
0.3 mg/kg, Day 11
  Mean Body Weight: 41.61 Grams
  Mean Daily Food Intake: 2.68 Grams
0.3 mg/kg, Day 18
  Fed Blood Glucose (Std Err): 161.22 (6.29) mg/dL
1 mg/kg
  Insulin Tolerance Test, Blood Glucose AUC: 21698.33 mg·min/dL
  Intraperitoneal Glucose Tolerance Test Blood Glucose AUC: 22102.50 mg·min/dL
  Plasma Insulin (Std Err): 3.12 (0.64) ng/mL
1 mg/kg, 0 min after glucose
  Intraperitoneal Glucose Tolerance Test Mean Blood Glucose: 156.60 mg/dL
1 mg/kg, 0 min after insulin
  Insulin Tolerance Test, Mean Blood Glucose: 181.70 mg/dL
1 mg/kg, 15 min after insulin
  Insulin Tolerance Test, Mean Blood Glucose: 193.89 mg/dL
1 mg/kg, 30 min after glucose
  Intraperitoneal Glucose Tolerance Test Mean Blood Glucose: 225.20 mg/dL
1 mg/kg, 30 min after insulin
  Insulin Tolerance Test, Mean Blood Glucose: 170.56 mg/dL
1 mg/kg, 60 min after glucose
  Intraperitoneal Glucose Tolerance Test Mean Blood Glucose: 185.50 mg/dL
1 mg/kg, 60 min after insulin
  Insulin Tolerance Test, Mean Blood Glucose: 182.78 mg/dL
1 mg/kg, 120 min after glucose
  Intraperitoneal Glucose Tolerance Test Mean Blood Glucose: 155.00 mg/dL
1 mg/kg, 120 min after insulin
  Insulin Tolerance Test, Mean Blood Glucose: 179.40 mg/dL
1 mg/kg, Day 0
  Fed Blood Glucose (Std Err): 170.80 (5.99) mg/dL
1 mg/kg, Day 1
  Mean Body Weight: 40.60 Grams
1 mg/kg, Day 2
  Mean Body Weight: 40.78 Grams
  Mean Daily Food Intake: 2.84 Grams
1 mg/kg, Day 3
  Mean Body Weight: 40.85 Grams
  Mean Daily Food Intake: 2.79 Grams
1 mg/kg, Day 4
  Mean Body Weight: 40.36 Grams
  Mean Daily Food Intake: 2.45 Grams
1 mg/kg, Day 5
  Mean Body Weight: 40.42 Grams
  Mean Daily Food Intake: 2.49 Grams
1 mg/kg, Day 8
  Mean Body Weight: 40.16 Grams
  Mean Daily Food Intake: 2.63 Grams
1 mg/kg, Day 10
  Mean Body Weight: 40.73 Grams
  Mean Daily Food Intake: 2.67 Grams
1 mg/kg, Day 11
  Mean Body Weight: 40.74 Grams
  Mean Daily Food Intake: 2.57 Grams
1 mg/kg, Day 18
  Fed Blood Glucose (Std Err): 151.20 (6.14) mg/dL
3 mg/kg
  Insulin Tolerance Test, Blood Glucose AUC: 19435.83 mg·min/dL
  Intraperitoneal Glucose Tolerance Test Blood Glucose AUC: 20854.50 mg·min/dL
  Plasma Insulin (Std Err): 1.74 (0.14) ng/mL
3 mg/kg, 0 min after glucose
  Intraperitoneal Glucose Tolerance Test Mean Blood Glucose: 141.30 mg/dL
3 mg/kg, 0 min after insulin
  Insulin Tolerance Test, Mean Blood Glucose: 161.10 mg/dL
3 mg/kg, 15 min after insulin
  Insulin Tolerance Test, Mean Blood Glucose: 179.67 mg/dL
3 mg/kg, 30 min after glucose
  Intraperitoneal Glucose Tolerance Test Mean Blood Glucose: 224.30 mg/dL
3 mg/kg, 30 min after insulin
  Insulin Tolerance Test, Mean Blood Glucose: 156.33 mg/dL
3 mg/kg, 60 min after glucose
  Intraperitoneal Glucose Tolerance Test Mean Blood Glucose: 174.20 mg/dL
3 mg/kg, 60 min after insulin
  Insulin Tolerance Test, Mean Blood Glucose: 167.22 mg/dL
3 mg/kg, 120 min after glucose
  Intraperitoneal Glucose Tolerance Test Mean Blood Glucose: 138.90 mg/dL
3 mg/kg, 120 min after insulin
  Insulin Tolerance Test, Mean Blood Glucose: 159.78 mg/dL
3 mg/kg, Day 0
  Fed Blood Glucose (Std Err): 161.8 (6.57) mg/dL
3 mg/kg, Day 1
  Mean Body Weight: 40.54 Grams
3 mg/kg, Day 2
  Mean Body Weight: 40.47 Grams
  Mean Daily Food Intake: 2.50 Grams
3 mg/kg, Day 3
  Mean Body Weight: 40.24 Grams
  Mean Daily Food Intake: 2.41 Grams
3 mg/kg, Day 4
  Mean Body Weight: 39.39 Grams
  Mean Daily Food Intake: 2.02 Grams
3 mg/kg, Day 5
  Mean Body Weight: 39.11 Grams
  Mean Daily Food Intake: 2.02 Grams
3 mg/kg, Day 8
  Mean Body Weight: 38.59 Grams
  Mean Daily Food Intake: 2.13 Grams
3 mg/kg, Day 10
  Mean Body Weight: 38.48 Grams
  Mean Daily Food Intake: 2.57 Grams
3 mg/kg, Day 11
  Mean Body Weight: 38.13 Grams
  Mean Daily Food Intake: 2.29 Grams
3 mg/kg, Day 18
  Fed Blood Glucose (Std Err): 142.60 (4.44) mg/dL
10 mg/kg
  Insulin Tolerance Test, Blood Glucose AUC: 16134.75 mg·min/dL
  Intraperitoneal Glucose Tolerance Test Blood Glucose AUC: 20820.00 mg·min/dL
  Plasma Insulin (Std Err): 1.64 (0.32) ng/mL
10 mg/kg, 0 min after glucose
  Intraperitoneal Glucose Tolerance Test Mean Blood Glucose: 149.00 mg/dL
10 mg/kg, 0 min after insulin
  Insulin Tolerance Test, Mean Blood Glucose: 161.10 mg/dL
10 mg/kg, 15 min after insulin
  Insulin Tolerance Test, Mean Blood Glucose: 143.90 mg/dL
10 mg/kg, 30 min after glucose
  Intraperitoneal Glucose Tolerance Test Mean Blood Glucose: 218.50 mg/dL
10 mg/kg, 30 min after insulin
  Insulin Tolerance Test, Mean Blood Glucose: 133.60 mg/dL
10 mg/kg, 60 min after glucose
  Intraperitoneal Glucose Tolerance Test Mean Blood Glucose: 169.60 mg/dL
10 mg/kg, 60 min after insulin
  Insulin Tolerance Test, Mean Blood Glucose: 126.20 mg/dL
10 mg/kg, 120 min after glucose
  Intraperitoneal Glucose Tolerance Test Mean Blood Glucose: 146.60 mg/dL
10 mg/kg, 120 min after insulin
  Insulin Tolerance Test, Mean Blood Glucose: 136.10 mg/dL
10 mg/kg, Day 0
  Fed Blood Glucose (Std Err): 167.9 (4.63) mg/dL
10 mg/kg, Day 1
  Mean Body Weight: 40.51 Grams
10 mg/kg, Day 2
  Mean Body Weight: 39.87 Grams
  Mean Daily Food Intake: 2.07 Grams
10 mg/kg, Day 3
  Mean Body Weight: 39.16 Grams
  Mean Daily Food Intake: 1.63 Grams
10 mg/kg, Day 4
  Mean Body Weight: 38.04 Grams
  Mean Daily Food Intake: 1.48 Grams
10 mg/kg, Day 5
  Mean Body Weight: 37.5 Grams
  Mean Daily Food Intake: 1.38 Grams
10 mg/kg, Day 8
  Mean Body Weight: 35.69 Grams
  Mean Daily Food Intake: 1.64 Grams
10 mg/kg, Day 10
  Mean Body Weight: 35.08 Grams
  Mean Daily Food Intake: 2.08 Grams
10 mg/kg, Day 11
  Mean Body Weight: 34.63 Grams
  Mean Daily Food Intake: 2.12 Grams
10 mg/kg, Day 18
  Fed Blood Glucose (Std Err): 144.30 (6.47) mg/dL
